# Experimental data published in US7371741B2, “Estradiol derivatives and pharmaceutical compositions using same” (EntreMed, Inc., priority 2003, dated 2008).
# Test system: MDA-MB-231: breast cancer
# Assay: In vitro anti-proliferative activity, BrdU incorporation, MDA-MB-231
# Assay type: cell-based
# Conditions: Homo sapiens; MDA-MB-231 cells, 50% inhibition of proliferation, BrdU incorporation into DNA
# Procedure: (§1) Determination of in vitro anti-proliferative activity of substituted estradiol analogs: In vitro anti-proliferative or anti-mitogenic activity was determined using a commercially available cell-based assay in 96-well tissue culture plates with assessment of proliferation by evaluating DNA synthesis through incorporation into DNA of immuno-reactive (BrdU) nucleotides. The cell types used are commercially available (MDA-MB-231: breast cancer; U87-MG: glioblastoma; PC3: prostate cancer; HUVEC: non-transformed early passage human umbilical vein endothelial cells). These assays, and the many assay variations possible to determine in vitro anti-proliferative or anti-mitogenic activity, are well known to those skilled in the art. The concentration which causes 50% inhibition of proliferation (IC50) was estimated from a dose-response curve generally carried out with a range of concentrations from ≧100 microg/mL to ≦0.01 microg/mL.
row,Compound,IC50
1,"COc1cc2c(cc1O)CC[C@@H]1[C@@H]2CC[C@]2(C)[C@@H](O)CC[C@@H]12 [Compound 1, 2-methoxyestradiol, reference compound]",690 ± 140 nM
2,"C=C1CC[C@H]2[C@@H]3CCc4cc(N)c(OCC)cc4[C@H]3CC[C@]12C [Compound 86, 3-amino-17-methylene-2-ethoxyestra-1,3,5(10)-triene]",2130 ± 120 nM
3,"COc1cc2c(cc1N)CC[C@@H]1[C@@H]2CC[C@]2(C)C(C)CC[C@@H]12 (some centres unmarked) [Compound 133, 3-amino-17-methyl-2-methoxyestra-1,3,5(10)-triene]",7310 ± 580 nM

# Same assay, conditions: MDA-MB-231 cells, 50% inhibition of proliferation, BrdU incorporation into DNA
row,Compound,IC50
1,"C=C1CC[C@H]2[C@@H]3CCc4cc(NC=O)c(OC)cc4[C@H]3CC[C@]12C [Compound 88, 3-formamide-17-methylene-2-methoxyestra-1,3,5(10)-triene]",300 ± 80 nM
2,"C=C1CC[C@H]2[C@@H]3CCc4cc(NC=O)c(OCC)cc4[C@H]3CC[C@]12C [Compound 89, 3-formamide-17-methylene-2-ethoxyestra-1,3,5(10)-triene]",2410 ± 130 nM
3,"CC=C1CC[C@H]2[C@@H]3CCc4cc(OS(N)(=O)=O)c(OC)cc4[C@H]3CC[C@]12C [Compound 94, 3-sulfamate-17-ethylene-2-methoxyestra-1,3,5(10)-triene]",580 ± 20 nM
4,"CC=C1CC[C@H]2[C@@H]3CCc4cc(N)c(OC)cc4[C@H]3CC[C@]12C [Compound 109, 3-amino-17-ethylene-2-methoxyestra-1,3,5(10)-triene]",1940 ± 270 nM
5,"CC=C1CC[C@H]2[C@@H]3CCc4cc(NC=O)c(OC)cc4[C@H]3CC[C@]12C [Compound 112, 3-formamide-17-ethylene-2-methoxyestra-1,3,5(10)-triene]",560 ± 20 nM
6,"COc1cc2c(cc1OS(N)(=O)=O)CC[C@@H]1[C@@H]2CC[C@]2(C)C(C)CC[C@@H]12 (some centres unmarked) [Compound 118, 3-sulfamate-17-methyl-2-methoxyestra-1,3,5(10)-triene]",660 ± 100 nM
7,"CCOc1cc2c(cc1OS(N)(=O)=O)CC[C@@H]1[C@@H]2CC[C@]2(C)C(C)CC[C@@H]12 (some centres unmarked) [Compound 119, 3-sulfamate-17-methyl-2-ethoxyestra-1,3,5(10)-triene]",1550 ± 390 nM
8,"COc1cc2c(cc1NC=O)CC[C@@H]1[C@@H]2CC[C@]2(C)C(C)CC[C@@H]12 (some centres unmarked) [Compound 136, 3-formamide-17-methyl-2-methoxyestra-1,3,5(10)-triene]",610 nM

# Test system: U87-MG: glioblastoma
# Assay: In vitro anti-proliferative activity, BrdU incorporation, U87-MG
# Assay type: cell-based
# Conditions: Homo sapiens, U-87 MG; U87-MG cells, 50% inhibition of proliferation, BrdU incorporation into DNA
# Procedure: as §1
row,Compound,IC50
1,"C=C1CC[C@H]2[C@@H]3CCc4cc(N)c(OCC)cc4[C@H]3CC[C@]12C [Compound 86, 3-amino-17-methylene-2-ethoxyestra-1,3,5(10)-triene]",7290 ± 2260 nM
2,"COc1cc2c(cc1N)CC[C@@H]1[C@@H]2CC[C@]2(C)C(C)CC[C@@H]12 (some centres unmarked) [Compound 133, 3-amino-17-methyl-2-methoxyestra-1,3,5(10)-triene]",14870 ± 10 nM

# Same assay, conditions: U87-MG cells, 50% inhibition of proliferation, BrdU incorporation into DNA
row,Compound,IC50
1,"C=C1CC[C@H]2[C@@H]3CCc4cc(NC=O)c(OC)cc4[C@H]3CC[C@]12C [Compound 88, 3-formamide-17-methylene-2-methoxyestra-1,3,5(10)-triene]",530 ± 240 nM
2,"C=C1CC[C@H]2[C@@H]3CCc4cc(NC=O)c(OCC)cc4[C@H]3CC[C@]12C [Compound 89, 3-formamide-17-methylene-2-ethoxyestra-1,3,5(10)-triene]",7730 nM
3,"CC=C1CC[C@H]2[C@@H]3CCc4cc(OS(N)(=O)=O)c(OC)cc4[C@H]3CC[C@]12C [Compound 94, 3-sulfamate-17-ethylene-2-methoxyestra-1,3,5(10)-triene]",640 ± 90 nM
4,"CC=C1CC[C@H]2[C@@H]3CCc4cc(N)c(OC)cc4[C@H]3CC[C@]12C [Compound 109, 3-amino-17-ethylene-2-methoxyestra-1,3,5(10)-triene]",2350 ± 410 nM
5,"CC=C1CC[C@H]2[C@@H]3CCc4cc(NC=O)c(OC)cc4[C@H]3CC[C@]12C [Compound 112, 3-formamide-17-ethylene-2-methoxyestra-1,3,5(10)-triene]",770 ± 60 nM
6,"COc1cc2c(cc1OS(N)(=O)=O)CC[C@@H]1[C@@H]2CC[C@]2(C)C(C)CC[C@@H]12 (some centres unmarked) [Compound 118, 3-sulfamate-17-methyl-2-methoxyestra-1,3,5(10)-triene]",640 ± 10 nM
7,"CCOc1cc2c(cc1OS(N)(=O)=O)CC[C@@H]1[C@@H]2CC[C@]2(C)C(C)CC[C@@H]12 (some centres unmarked) [Compound 119, 3-sulfamate-17-methyl-2-ethoxyestra-1,3,5(10)-triene]",6410 nM
8,"COc1cc2c(cc1NC=O)CC[C@@H]1[C@@H]2CC[C@]2(C)C(C)CC[C@@H]12 (some centres unmarked) [Compound 136, 3-formamide-17-methyl-2-methoxyestra-1,3,5(10)-triene]",640 ± 10 nM

# Test system: PC3: prostate cancer
# Assay: In vitro anti-proliferative activity, BrdU incorporation, PC3
# Assay type: cell-based
# Conditions: Homo sapiens, PC-3; PC3 cells, 50% inhibition of proliferation, BrdU incorporation into DNA
# Procedure: as §1
row,Compound,IC50
1,"COc1cc2c(cc1O)CC[C@@H]1[C@@H]2CC[C@]2(C)[C@@H](O)CC[C@@H]12 [Compound 1, 2-methoxyestradiol, reference compound]",1080 ± 500 nM
2,"C=C1CC[C@H]2[C@@H]3CCc4cc(N)c(OCC)cc4[C@H]3CC[C@]12C [Compound 86, 3-amino-17-methylene-2-ethoxyestra-1,3,5(10)-triene]",2750 ± 220 nM
3,"COc1cc2c(cc1N)CC[C@@H]1[C@@H]2CC[C@]2(C)C(C)CC[C@@H]12 (some centres unmarked) [Compound 133, 3-amino-17-methyl-2-methoxyestra-1,3,5(10)-triene]",7160 ± 1420 nM

# Same assay, conditions: PC3 cells, 50% inhibition of proliferation, BrdU incorporation into DNA
row,Compound,IC50
1,"C=C1CC[C@H]2[C@@H]3CCc4cc(NC=O)c(OC)cc4[C@H]3CC[C@]12C [Compound 88, 3-formamide-17-methylene-2-methoxyestra-1,3,5(10)-triene]",240 ± 60 nM
2,"C=C1CC[C@H]2[C@@H]3CCc4cc(NC=O)c(OCC)cc4[C@H]3CC[C@]12C [Compound 89, 3-formamide-17-methylene-2-ethoxyestra-1,3,5(10)-triene]",1590 ± 190 nM
3,"CC=C1CC[C@H]2[C@@H]3CCc4cc(OS(N)(=O)=O)c(OC)cc4[C@H]3CC[C@]12C [Compound 94, 3-sulfamate-17-ethylene-2-methoxyestra-1,3,5(10)-triene]",660 ± 50 nM
4,"CC=C1CC[C@H]2[C@@H]3CCc4cc(N)c(OC)cc4[C@H]3CC[C@]12C [Compound 109, 3-amino-17-ethylene-2-methoxyestra-1,3,5(10)-triene]",920 ± 110 nM
5,"CC=C1CC[C@H]2[C@@H]3CCc4cc(NC=O)c(OC)cc4[C@H]3CC[C@]12C [Compound 112, 3-formamide-17-ethylene-2-methoxyestra-1,3,5(10)-triene]",740 ± 10 nM
6,"COc1cc2c(cc1OS(N)(=O)=O)CC[C@@H]1[C@@H]2CC[C@]2(C)C(C)CC[C@@H]12 (some centres unmarked) [Compound 118, 3-sulfamate-17-methyl-2-methoxyestra-1,3,5(10)-triene]",820 ± 60 nM
7,"CCOc1cc2c(cc1OS(N)(=O)=O)CC[C@@H]1[C@@H]2CC[C@]2(C)C(C)CC[C@@H]12 (some centres unmarked) [Compound 119, 3-sulfamate-17-methyl-2-ethoxyestra-1,3,5(10)-triene]",830 nM
8,"COc1cc2c(cc1NC=O)CC[C@@H]1[C@@H]2CC[C@]2(C)C(C)CC[C@@H]12 (some centres unmarked) [Compound 136, 3-formamide-17-methyl-2-methoxyestra-1,3,5(10)-triene]",700 ± 100 nM

# Test system: HUVEC: non-transformed early passage human umbilical vein endothelial cells
# Assay: In vitro anti-proliferative activity, BrdU incorporation, HUVEC
# Assay type: cell-based
# Conditions: 50% inhibition of proliferation, BrdU incorporation into DNA
# Procedure: as §1
row,Compound,IC50
1,"C=C1CC[C@H]2[C@@H]3CCc4cc(NC=O)c(OC)cc4[C@H]3CC[C@]12C [Compound 88, 3-formamide-17-methylene-2-methoxyestra-1,3,5(10)-triene]",220 ± 30 nM
2,"C=C1CC[C@H]2[C@@H]3CCc4cc(NC=O)c(OCC)cc4[C@H]3CC[C@]12C [Compound 89, 3-formamide-17-methylene-2-ethoxyestra-1,3,5(10)-triene]",2100 ± 20 nM
3,"CC=C1CC[C@H]2[C@@H]3CCc4cc(OS(N)(=O)=O)c(OC)cc4[C@H]3CC[C@]12C [Compound 94, 3-sulfamate-17-ethylene-2-methoxyestra-1,3,5(10)-triene]",590 nM
4,"CC=C1CC[C@H]2[C@@H]3CCc4cc(N)c(OC)cc4[C@H]3CC[C@]12C [Compound 109, 3-amino-17-ethylene-2-methoxyestra-1,3,5(10)-triene]",720 ± 100 nM
5,"CC=C1CC[C@H]2[C@@H]3CCc4cc(NC=O)c(OC)cc4[C@H]3CC[C@]12C [Compound 112, 3-formamide-17-ethylene-2-methoxyestra-1,3,5(10)-triene]",580 nM
6,"COc1cc2c(cc1OS(N)(=O)=O)CC[C@@H]1[C@@H]2CC[C@]2(C)C(C)CC[C@@H]12 (some centres unmarked) [Compound 118, 3-sulfamate-17-methyl-2-methoxyestra-1,3,5(10)-triene]",590 ± 100 nM
7,"CCOc1cc2c(cc1OS(N)(=O)=O)CC[C@@H]1[C@@H]2CC[C@]2(C)C(C)CC[C@@H]12 (some centres unmarked) [Compound 119, 3-sulfamate-17-methyl-2-ethoxyestra-1,3,5(10)-triene]",910 ± 90 nM
8,"COc1cc2c(cc1NC=O)CC[C@@H]1[C@@H]2CC[C@]2(C)C(C)CC[C@@H]12 (some centres unmarked) [Compound 136, 3-formamide-17-methyl-2-methoxyestra-1,3,5(10)-triene]",590 nM

# Same assay, conditions: Homo sapiens, 50% inhibition of proliferation, BrdU incorporation into DNA
row,Compound,IC50
1,"COc1cc2c(cc1O)CC[C@@H]1[C@@H]2CC[C@]2(C)[C@@H](O)CC[C@@H]12 [Compound 1, 2-methoxyestradiol, reference compound]",680 ± 150 nM
2,"C=C1CC[C@H]2[C@@H]3CCc4cc(N)c(OCC)cc4[C@H]3CC[C@]12C [Compound 86, 3-amino-17-methylene-2-ethoxyestra-1,3,5(10)-triene]",2310 ± 50 nM
3,"COc1cc2c(cc1N)CC[C@@H]1[C@@H]2CC[C@]2(C)C(C)CC[C@@H]12 (some centres unmarked) [Compound 133, 3-amino-17-methyl-2-methoxyestra-1,3,5(10)-triene]",2650 ± 770 nM

# Test system: chick embryo chorioallantoic membrane
# Assay: Chick embryo chorioallantoic membrane (CAM) assay
# Assay type: in vivo
# Conditions: 100 μg methylcellulose disk, after 48 hours
# Excerpt: Anti-proliferative activity can be evaluated in situ by testing the ability of an improved estradiol derivative to inhibit the proliferation of new blood vessel cells (angiogenesis). A suitable assay is the chick embryo chorioallantoic membrane (CAM) assay described by Crum et al. Science 230:1375 (1985). See also, U.S. Pat. No. 5,001,116, hereby incorporated by reference, which describes the CAM assay. Briefly, fertilized chick embryos are removed from their shell on day 3 or 4, and a methylcellulose disc containing the drug is implanted on the chorioallantoic membrane. The embryos are examined 48 hours later and, if a clear avascular zone appears around the methylcellulose disc, the diameter of that zone is measured.
row,Compound,inhibition of cell mitosis and growth of new blood vessels (CAM)
1,"COc1cc2c(cc1O)CC[C@@H]1[C@@H]2CC[C@]2(C)[C@@H](O)CC[C@@H]12 [Compound 1, 2-methoxyestradiol, reference compound]",inhibit cell mitosis and the growth of new blood vessels
